Values after ≈ are worked out from the molar mass of the structure shown.
Experiments:
[1] = tested on: human leukemia cells (CCRF-CEM cell line); assay: Growth inhibition of human leukemia cells (CCRF-CEM cytotoxicity screen); type: cell-based; settings: Homo sapiens, CCRF-CEM
Source text: In another aspect, the invention provides a method of treating susceptible neoplasms in mammals comprising administering to a mammal in need of such treatment a pharmaceutically effective amount of a compound of formula (I). […] The treatment contemplated by the present method includes both medical therapeutic and prophylactic treatment, as appropriate. The specific dosage level of the compound administered according to this invention will, of course, be determined by the circumstances surrounding the case, including, for example, the particular compound administered, the route of administration, and the condition being treated. The compounds are effectively administered orally, topically, or parenterally. […] The representative compounds of formula (I) employed in the present invention are cytotoxic as they inhibit the growth of rapidly dividing human leukemia cells (CCRF-CEM cell line). Table 1 below gives the results of testing several compounds representative of formula (I).

[2] = tested on: Human Cytomegalovirus (HCMV) strain AD169; assay: Human Cytomegalovirus Test (plaque inhibition in WI-38 cells); type: cell-based; settings: read-out: Percent Plaque Inhibition at Specified µg/ml conc.
Experimental: WI-38 cells (American Type Culture Collection; CCL-35) were seeded into 24-well plates in MEM media (GIBCO) supplemented with 10% fetal bovine serum and penicillin/streptomycin. The plates wre incbated at 37°C, in 5 percent carbon dioxide in a humidified incubator for 3 days. Human Cytomegalovirus (HCMV) strain AD169 (American Type Culture Collection) was added to each well (40 plaque forming unites in 100 µl of media) and the virus was allowed to adsorb to the cells for 2 hours at room temperature. The compound of Example 5 was dissolved in 100 percent dimethylsulfoxide at a concentration of 20 mgs/ml and diluted with media to yield final concentrations of 50, 25, 12.5, 6.25, 3.13, 1.6, 0.8, 0.4, 0.2, and 0.1 µg/ml in one set of experiments and 32, 10, 3.2, 1, and 0.32 µg/ml in another set of experiments. Each concentration was done in duplicate. In all experiments, Cytovene (DHPG) was used as a positive control.
The infected cells were incubated for 10 days at 37°C, 5 percent carbon dioxide, in an humidified incubator without changes of media. After incubation, the cells were fixed for at least 15 minutes with 10 percent formalin and rinsed with water. After rinsing, the cells were stained for at least 15 minutes with crystal violet and allowed to dry. HCMV induced plaques were counted with the aid of an iverted microscope. The number of viral plaques appearing in cells treated with each concentration of the Example 5 compound was compared to the number of viral plaques in cells left untreated ("no-drug control") and the percent inhibition of viral plaque formation was calculated. The concentration of the Example 5 compound required to inhibit viral plaque formation by 50 percent was determined using linear regression analysis.

CNc1nc(N)nc2c1ncn2[C@@H]1O[C@H](CO)[C@@H](O)C1(F)F [Example 5, 2-deoxy-2,2-difluoro-D-ribofuranosyl-1-β-(2-amino-6-methylaminopurine)]
IC50 [1]: 0.054 µg/mL (≈ 0.171 µM)
inhibition at 0.2 µg/mL ([2]; Human betaherpesvirus 5, AD169, 240 h, 0.2 µg/ml, WI-38 cells, 10 days): 24%
inhibition at 0.4 µg/mL ([2]; Human betaherpesvirus 5, AD169, 240 h, 0.4 µg/ml, WI-38 cells, 10 days): 17.2%
inhibition at 0.8 µg/mL ([2]; Human betaherpesvirus 5, AD169, 240 h, 0.8 µg/ml, WI-38 cells, 10 days): 38%
inhibition at 1.6 µg/mL ([2]; Human betaherpesvirus 5, AD169, 240 h, 1.6 µg/ml, WI-38 cells, 10 days): 41.4%
inhibition at 6.25 µg/mL ([2]; Human betaherpesvirus 5, AD169, 240 h, 6.25 µg/ml, WI-38 cells, 10 days): 86.2%
inhibition at 12.5 µg/mL ([2]; Human betaherpesvirus 5, AD169, 240 h, 12.5 µg/ml, WI-38 cells, 10 days): 81%
inhibition at 25 µg/mL ([2]; Human betaherpesvirus 5, AD169, 240 h, 25 µg/ml, WI-38 cells, 10 days): 89.6%
inhibition at 3.12 µg/mL ([2]; Human betaherpesvirus 5, AD169, WI-38, 240 h): 62%
